Assay results: ChEMBL document CHEMBL2203238, “Hit to Lead optimization of a novel class of squarate-containing polo-like kinases inhibitors” (Bioorg Med Chem Lett, 2012)

Assays:
[1] = target: RAC-alpha serine/threonine-protein kinase (Homo sapiens, UniProt P31749); assay: Inhibition of recombinant AKT1 after 1 hr by scintillation counter analysis in presence of gamma-[33P]ATP
[2] = target: Serine/threonine-protein kinase D2 (Homo sapiens, UniProt Q9BZL6); assay: Inhibition of recombinant PKD2 after 1 hr by scintillation counter analysis in presence of gamma-[33P]ATP
Serine/threonine-protein kinase D2, sequence (Q9BZL6 whole entry): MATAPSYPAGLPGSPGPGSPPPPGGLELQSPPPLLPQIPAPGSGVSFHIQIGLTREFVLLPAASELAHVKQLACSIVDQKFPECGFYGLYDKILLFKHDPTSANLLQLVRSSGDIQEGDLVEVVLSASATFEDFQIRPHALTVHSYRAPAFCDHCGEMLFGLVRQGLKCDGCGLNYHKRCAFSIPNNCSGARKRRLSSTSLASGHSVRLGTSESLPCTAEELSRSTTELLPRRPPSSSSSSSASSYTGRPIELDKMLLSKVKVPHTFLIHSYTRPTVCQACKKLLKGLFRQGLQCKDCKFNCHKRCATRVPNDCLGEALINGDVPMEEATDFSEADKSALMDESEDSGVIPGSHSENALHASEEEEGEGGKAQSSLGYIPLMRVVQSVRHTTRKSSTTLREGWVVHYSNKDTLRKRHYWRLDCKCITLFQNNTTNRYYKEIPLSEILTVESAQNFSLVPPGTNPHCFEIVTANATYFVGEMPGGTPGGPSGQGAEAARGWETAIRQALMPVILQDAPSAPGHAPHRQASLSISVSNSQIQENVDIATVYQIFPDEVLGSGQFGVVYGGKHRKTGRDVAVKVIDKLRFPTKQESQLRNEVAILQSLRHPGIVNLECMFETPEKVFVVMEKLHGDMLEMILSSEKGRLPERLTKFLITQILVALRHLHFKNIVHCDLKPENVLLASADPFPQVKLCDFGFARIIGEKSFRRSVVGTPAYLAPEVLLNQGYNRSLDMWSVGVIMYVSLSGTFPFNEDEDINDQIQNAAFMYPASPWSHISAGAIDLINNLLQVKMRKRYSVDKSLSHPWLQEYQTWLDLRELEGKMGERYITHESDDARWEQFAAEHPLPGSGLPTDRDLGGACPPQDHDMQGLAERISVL

[3] = Cmax in mouse at 50 mg/kg, po measured at 8 hrs; type: ADME, organism-based; design: dose 50 mg/kg, route oral; conditions: in vivo
[4] = target: Macrophage colony-stimulating factor 1 receptor (Homo sapiens, UniProt P07333); assay: Inhibition of recombinant CSF1R after 1 hr by scintillation counter analysis in presence of gamma-[33P]ATP
[5] = target: 5'-AMP-activated protein kinase subunit beta-1 (Homo sapiens, UniProt Q9Y478); assay: Inhibition of recombinant AMPK after 1 hr by scintillation counter analysis in presence of gamma-[33P]ATP
[6] = target: 3-phosphoinositide-dependent protein kinase 1 (Homo sapiens, UniProt O15530); assay: Inhibition of recombinant PDK1 after 1 hr by scintillation counter analysis in presence of gamma-[33P]ATP
[7] = target: Protein kinase C delta type (Homo sapiens, UniProt Q05655); assay: Inhibition of recombinant PKCdelta after 1 hr by scintillation counter analysis in presence of gamma-[33P]ATP
[8] = Inhibition of recombinant CK2 after 1 hr by scintillation counter analysis in presence of gamma-[33P]ATP
[9] = target: Serine/threonine-protein kinase PLK1 (Homo sapiens, UniProt P53350); assay: Inhibition of recombinant GST-tagged PLK1 using biotin-ahx-AKMETTFYDDALNASFLPSEKKK-amide as substrate after 30 mins by scintillation counting analysis in presence of gamma-[33P]ATP
[10] = target: Tyrosine-protein kinase ITK/TSK (Homo sapiens, UniProt Q08881); assay: Inhibition of recombinant ITK after 1 hr by scintillation counter analysis in presence of gamma-[33P]ATP
[11] = target: Serine/threonine-protein kinase 3 (Homo sapiens, UniProt Q13188); assay: Inhibition of recombinant MST2 after 1 hr by scintillation counter analysis in presence of gamma-[33P]ATP
[12] = target: Mitogen-activated protein kinase 8 (Homo sapiens, UniProt P45983); assay: Inhibition of recombinant JNK1A1 after 1 hr by scintillation counter analysis in presence of gamma-[33P]ATP
[13] = target: Casein kinase I isoform delta (Homo sapiens, UniProt P48730); assay: Inhibition of recombinant CK1delta after 1 hr by scintillation counter analysis in presence of gamma-[33P]ATP
[14] = target: Proto-oncogene tyrosine-protein kinase Src (Homo sapiens, UniProt P12931); assay: Inhibition of recombinant SRC after 1 hr by scintillation counter analysis in presence of gamma-[33P]ATP
Proto-oncogene tyrosine-protein kinase Src, sequence (P12931 2-536 limits assumed): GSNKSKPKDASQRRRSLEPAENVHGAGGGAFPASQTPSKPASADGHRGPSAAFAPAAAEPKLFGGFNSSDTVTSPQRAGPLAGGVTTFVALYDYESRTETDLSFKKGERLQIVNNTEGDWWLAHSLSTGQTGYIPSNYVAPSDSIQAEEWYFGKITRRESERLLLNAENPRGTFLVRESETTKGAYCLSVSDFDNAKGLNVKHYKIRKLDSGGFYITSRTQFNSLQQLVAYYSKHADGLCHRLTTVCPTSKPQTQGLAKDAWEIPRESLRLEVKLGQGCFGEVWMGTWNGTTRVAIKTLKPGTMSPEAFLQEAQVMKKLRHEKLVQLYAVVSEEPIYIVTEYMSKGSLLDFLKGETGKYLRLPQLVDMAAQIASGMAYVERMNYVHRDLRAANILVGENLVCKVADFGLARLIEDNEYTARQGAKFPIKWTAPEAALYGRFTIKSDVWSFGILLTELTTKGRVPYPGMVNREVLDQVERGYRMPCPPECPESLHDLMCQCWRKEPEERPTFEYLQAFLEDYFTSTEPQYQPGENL

[15] = target: Rho-associated protein kinase 2 (Homo sapiens, UniProt O75116); assay: Inhibition of recombinant ROCK2 after 1 hr by scintillation counter analysis in presence of gamma-[33P]ATP
[16] = target: Vascular endothelial growth factor receptor 2 (Homo sapiens, UniProt P35968); assay: Inhibition of recombinant KDR after 1 hr by scintillation counter analysis in presence of gamma-[33P]ATP
[17] = target: MAP/microtubule affinity-regulating kinase 3 (Homo sapiens, UniProt P27448); assay: Inhibition of recombinant CTAK1 after 1 hr by scintillation counter analysis in presence of gamma-[33P]ATP
[18] = Oral bioavailability in mouse; type: ADME, organism-based; conditions: in vivo
[19] = target: Serine/threonine-protein kinase PLK3 (Homo sapiens, UniProt Q9H4B4); assay: Inhibition of recombinant PLK3 after 1 hr by scintillation counter analysis in presence of gamma-[33P]ATP
Serine/threonine-protein kinase PLK3, sequence (Q9H4B4 whole entry): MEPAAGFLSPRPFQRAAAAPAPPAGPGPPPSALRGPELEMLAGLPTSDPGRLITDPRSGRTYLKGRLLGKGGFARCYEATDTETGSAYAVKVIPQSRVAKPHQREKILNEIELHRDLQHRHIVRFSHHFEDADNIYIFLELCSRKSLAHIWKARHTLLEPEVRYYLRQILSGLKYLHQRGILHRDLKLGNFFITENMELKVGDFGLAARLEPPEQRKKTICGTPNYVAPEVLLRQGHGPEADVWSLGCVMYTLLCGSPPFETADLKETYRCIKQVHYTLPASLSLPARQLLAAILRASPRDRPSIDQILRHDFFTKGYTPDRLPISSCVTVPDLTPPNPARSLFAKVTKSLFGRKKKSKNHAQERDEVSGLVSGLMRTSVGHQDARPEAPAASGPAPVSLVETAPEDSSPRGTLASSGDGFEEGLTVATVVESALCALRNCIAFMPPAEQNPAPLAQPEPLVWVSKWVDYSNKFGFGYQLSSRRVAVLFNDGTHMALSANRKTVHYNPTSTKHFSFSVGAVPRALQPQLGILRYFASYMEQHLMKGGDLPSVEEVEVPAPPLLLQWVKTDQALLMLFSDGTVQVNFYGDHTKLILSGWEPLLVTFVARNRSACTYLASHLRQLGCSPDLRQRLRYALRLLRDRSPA

[20] = target: Receptor tyrosine-protein kinase erbB-2 (Homo sapiens, UniProt P04626); assay: Inhibition of recombinant ERBB2 after 1 hr by scintillation counter analysis in presence of gamma-[33P]ATP
[21] = target: Tyrosine-protein kinase Lyn (Homo sapiens, UniProt P07948); assay: Inhibition of recombinant LYN after 1 hr by scintillation counter analysis in presence of gamma-[33P]ATP
Tyrosine-protein kinase Lyn, sequence (P07948 whole entry): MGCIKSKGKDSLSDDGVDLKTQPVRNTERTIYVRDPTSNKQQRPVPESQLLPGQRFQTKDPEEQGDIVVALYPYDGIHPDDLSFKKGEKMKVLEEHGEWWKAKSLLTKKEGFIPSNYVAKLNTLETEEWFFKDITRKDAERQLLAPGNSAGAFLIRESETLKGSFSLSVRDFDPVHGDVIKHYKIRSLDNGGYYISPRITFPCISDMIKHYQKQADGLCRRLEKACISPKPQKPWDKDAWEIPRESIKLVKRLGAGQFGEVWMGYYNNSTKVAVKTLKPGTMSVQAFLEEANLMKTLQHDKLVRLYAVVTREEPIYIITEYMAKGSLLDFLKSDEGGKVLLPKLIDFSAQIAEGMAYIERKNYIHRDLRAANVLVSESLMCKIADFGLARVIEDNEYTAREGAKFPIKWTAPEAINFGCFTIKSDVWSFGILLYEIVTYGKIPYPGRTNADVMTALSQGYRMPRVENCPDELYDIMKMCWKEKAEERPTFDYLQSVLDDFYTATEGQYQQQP

[22] = target: Receptor tyrosine-protein kinase erbB-4 (Homo sapiens, UniProt Q15303); assay: Inhibition of recombinant ERBB4 after 1 hr by scintillation counter analysis in presence of gamma-[33P]ATP
[23] = target: Interleukin-1 receptor-associated kinase 4 (Homo sapiens, UniProt Q9NWZ3); assay: Inhibition of recombinant IRAK4 after 1 hr by scintillation counter analysis in presence of gamma-[33P]ATP
[24] = target: Hepatocyte growth factor receptor (Homo sapiens, UniProt P08581); assay: Inhibition of recombinant c-MET after 1 hr by scintillation counter analysis in presence of gamma-[33P]ATP
[25] = target: Cyclin-dependent kinase 5 (Homo sapiens, UniProt Q00535); assay: Inhibition of recombinant CDK5 after 1 hr by scintillation counter analysis in presence of gamma-[33P]ATP
[26] = target: Serine/threonine-protein kinase PAK 1 (Homo sapiens, UniProt Q13153); assay: Inhibition of recombinant PAK1 after 1 hr by scintillation counter analysis in presence of gamma-[33P]ATP
[27] = target: Vascular endothelial growth factor receptor 1 (Homo sapiens, UniProt P17948); assay: Inhibition of recombinant FLT1 after 1 hr by scintillation counter analysis in presence of gamma-[33P]ATP
[28] = target: Serine/threonine-protein kinase Nek2 (Homo sapiens, UniProt P51955); assay: Inhibition of recombinant NEK2 after 1 hr by scintillation counter analysis in presence of gamma-[33P]ATP
[29] = Inhibition of recombinant PKA after 1 hr by scintillation counter analysis in presence of gamma-[33P]ATP
[30] = target: Tyrosine-protein kinase JAK2 (Homo sapiens, UniProt O60674); assay: Inhibition of recombinant JAK2 after 1 hr by scintillation counter analysis in presence of gamma-[33P]ATP
Tyrosine-protein kinase JAK2, sequence (O60674 whole entry): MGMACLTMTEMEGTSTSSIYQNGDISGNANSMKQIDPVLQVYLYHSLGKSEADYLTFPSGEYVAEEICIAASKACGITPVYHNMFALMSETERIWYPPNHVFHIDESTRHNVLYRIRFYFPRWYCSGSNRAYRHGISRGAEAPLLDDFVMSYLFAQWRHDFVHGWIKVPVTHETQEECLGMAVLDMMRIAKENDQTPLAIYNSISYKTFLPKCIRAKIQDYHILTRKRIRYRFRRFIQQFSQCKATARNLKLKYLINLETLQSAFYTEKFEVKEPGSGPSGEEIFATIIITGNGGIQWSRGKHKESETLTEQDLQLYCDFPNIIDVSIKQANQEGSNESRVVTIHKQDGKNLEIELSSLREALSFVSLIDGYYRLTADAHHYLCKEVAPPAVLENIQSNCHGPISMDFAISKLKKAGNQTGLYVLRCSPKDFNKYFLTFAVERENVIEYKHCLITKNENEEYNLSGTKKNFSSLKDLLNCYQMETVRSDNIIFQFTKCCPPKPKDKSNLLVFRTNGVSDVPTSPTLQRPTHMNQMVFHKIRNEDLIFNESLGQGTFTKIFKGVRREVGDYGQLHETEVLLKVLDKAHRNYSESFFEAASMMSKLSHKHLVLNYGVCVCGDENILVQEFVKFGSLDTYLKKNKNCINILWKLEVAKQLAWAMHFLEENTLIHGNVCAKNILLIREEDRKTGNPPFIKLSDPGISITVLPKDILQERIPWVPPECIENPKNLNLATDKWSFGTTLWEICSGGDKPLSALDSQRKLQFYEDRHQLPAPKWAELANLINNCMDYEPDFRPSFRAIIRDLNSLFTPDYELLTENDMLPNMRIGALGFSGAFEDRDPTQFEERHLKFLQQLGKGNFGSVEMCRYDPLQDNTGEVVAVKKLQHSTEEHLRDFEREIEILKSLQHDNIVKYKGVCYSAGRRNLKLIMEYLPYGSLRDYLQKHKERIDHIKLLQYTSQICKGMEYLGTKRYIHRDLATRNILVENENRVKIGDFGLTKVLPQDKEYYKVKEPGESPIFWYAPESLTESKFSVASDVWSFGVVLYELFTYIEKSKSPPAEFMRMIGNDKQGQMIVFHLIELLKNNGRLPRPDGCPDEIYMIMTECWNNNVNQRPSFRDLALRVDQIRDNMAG

[31] = target: Serine/threonine-protein kinase Chk1 (Homo sapiens, UniProt O14757); assay: Inhibition of recombinant CHK1 after 1 hr by scintillation counter analysis in presence of gamma-[33P]ATP
[32] = target: Tyrosine-protein kinase JAK3 (Homo sapiens, UniProt P52333); assay: Inhibition of recombinant JAK3 after 1 hr by scintillation counter analysis in presence of gamma-[33P]ATP
Tyrosine-protein kinase JAK3, sequence (P52333 whole entry): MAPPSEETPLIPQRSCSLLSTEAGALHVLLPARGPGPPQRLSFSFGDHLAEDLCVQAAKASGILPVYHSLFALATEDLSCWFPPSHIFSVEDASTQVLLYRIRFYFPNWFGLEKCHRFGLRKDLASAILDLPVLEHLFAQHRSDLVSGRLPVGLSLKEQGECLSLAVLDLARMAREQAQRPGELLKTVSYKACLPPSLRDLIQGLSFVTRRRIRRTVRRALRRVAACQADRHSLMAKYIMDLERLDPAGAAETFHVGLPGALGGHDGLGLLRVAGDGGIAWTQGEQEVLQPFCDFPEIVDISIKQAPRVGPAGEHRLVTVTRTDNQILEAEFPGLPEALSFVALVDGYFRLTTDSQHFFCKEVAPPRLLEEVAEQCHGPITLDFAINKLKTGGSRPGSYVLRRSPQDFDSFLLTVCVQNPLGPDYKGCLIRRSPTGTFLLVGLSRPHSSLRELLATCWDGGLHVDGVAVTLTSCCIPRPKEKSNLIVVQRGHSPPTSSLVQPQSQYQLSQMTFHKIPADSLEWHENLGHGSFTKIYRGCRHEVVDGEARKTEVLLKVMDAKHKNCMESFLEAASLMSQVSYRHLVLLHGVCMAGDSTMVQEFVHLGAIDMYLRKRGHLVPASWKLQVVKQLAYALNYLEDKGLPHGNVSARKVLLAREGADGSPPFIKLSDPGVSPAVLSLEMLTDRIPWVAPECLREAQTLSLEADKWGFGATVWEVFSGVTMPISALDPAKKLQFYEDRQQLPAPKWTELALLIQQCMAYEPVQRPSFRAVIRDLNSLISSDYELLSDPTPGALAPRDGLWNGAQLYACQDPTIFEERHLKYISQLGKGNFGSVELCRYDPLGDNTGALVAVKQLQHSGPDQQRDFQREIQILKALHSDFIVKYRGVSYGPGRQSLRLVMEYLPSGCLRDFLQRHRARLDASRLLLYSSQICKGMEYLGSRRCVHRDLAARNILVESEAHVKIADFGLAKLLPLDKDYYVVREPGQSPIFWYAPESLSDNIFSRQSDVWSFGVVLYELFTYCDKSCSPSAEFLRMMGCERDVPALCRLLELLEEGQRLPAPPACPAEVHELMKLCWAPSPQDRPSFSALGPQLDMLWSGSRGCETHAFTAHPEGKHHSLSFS

[33] = Volume of distribution in mouse; type: ADME, organism-based; conditions: in vivo
[34] = target: Serine/threonine-protein kinase Sgk1 (Homo sapiens, UniProt O00141); assay: Inhibition of recombinant SGK after 1 hr by scintillation counter analysis in presence of gamma-[33P]ATP
[35] = target: RAC-beta serine/threonine-protein kinase (Homo sapiens, UniProt P31751); assay: Inhibition of recombinant AKT2 after 1 hr by scintillation counter analysis in presence of gamma-[33P]ATP
[36] = target: Fibroblast growth factor receptor 3 (Homo sapiens, UniProt P22607); assay: Inhibition of recombinant FGFR3 after 1 hr by scintillation counter analysis in presence of gamma-[33P]ATP

CC(C)(C)Nc1c(Nc2ccnc(Nc3ccc(-c4ccncc4)cc3)n2)c(=O)c1=O
Ki [1]: > 8000 nM
Ki [2]: 175 nM
Cmax [3]: 3.3 µM
Ki [4]: 2100 nM
Ki [5]: 333 nM
Ki [6]: 71 nM
Ki [7]: 7.9 nM
Ki [8]: 276 nM
Ki [9]: 5 nM
Ki [10]: > 1500 nM
Ki [11]: 2900 nM
Ki [12]: > 3000 nM
Ki [13]: > 7800 nM
Ki [14]: > 1900 nM
Ki [15]: 430 nM
Ki [16]: 98 nM
Ki [17]: 4830 nM
bioavailability [18]: 100%
Ki [19]: 2 nM
Ki [20]: > 1400 nM
Ki [21]: > 1600 nM
Ki [22]: > 3700 nM
Ki [23]: > 9900 nM
Ki [24]: 1600 nM
Ki [25]: 416 nM
Ki [26]: > 9700 nM
Ki [27]: 14 nM
Ki [28]: > 9200 nM
Ki [29]: > 7500 nM
Ki [30]: 920 nM
Ki [31]: 167 nM
Ki [32]: > 1700 nM
Vd [33]: 3.7 L/kg
Ki [34]: 260 nM
Ki [35]: > 8000 nM
Ki [36]: 1400 nM
